Measurements taken from patent US8420644B2, “Pharmaceutical composition intended for the prevention or for the treatment of cerebral oedemas” (Biocodex, priority 2005, dated 2013).
Read-outs that look alike come from different tables or passages of the source.

Columns and labels:
[1] = test system: cerebral edema induced triethyltin (TET) chloride; details: administered during the intoxication, measured after 5 days (Linee et al., 1984); cited from earlier work
[2] = test system: cerebral oedema induced by triethyltin (TET); details: rat, in vivo
[3] = test system: ambulatory activity disrupted by triethyltin (TET); details: for Ambulatory activities: no TET
[4] = format: in vivo, rat
[5] = moclobemide 2 × 50 mg/kg/day + TET 3 mg/kg/day, day 4
[6] = moclobemide 2 × 50 mg/kg/day + TET 3 mg/kg/day, day −3, before any treatment
[7] = moclobemide 2 × 50 mg/kg/day, TET 0, day 4
[8] = moclobemide 2 × 50 mg/kg/day, TET 0, day −3, before any treatment
[9] = moclobemide 2×100 mg/kg/day + TET
[10] = moclobemide 2 × 100 mg/kg/day + TET 3 mg/kg/day, day 4
[11] = moclobemide 2 × 100 mg/kg/day + TET 3 mg/kg/day, day −3, before any treatment

**Q.** For (−)eburnamonine, which “Activity in the preventive protocol of intoxication with tin” value (“Activity in the preventive protocol” for short) [1] is on record?
**A.** Its value is “active”.

**Q.** Which “Activity in the preventive protocol” value [1] does the source give for `CC[C@]12CCCN3CCc4c(n(c5ccccc45)[C@@](O)(C(=O)OC)C1)[C@@H]32` [vincamine] here?
**A.** The value was “active”.

**Q.** Which “Activity in the preventive protocol” value [1] does the source give for dihydroergotoxin here?
**A.** Its value is “active”.

**Q.** For moclobemide, which Variation in percentage ([2]; 50 mg/kg/day) is on record?
**A.** The Variation in percentage was −0.01%.

**Q.** And the Variation in percentage ([2]; 100 mg/kg/day)?
**A.** The Variation in percentage was −0.14%.

**Q.** What about the “Effect of TET on the ambulatory activities” value ([3]; moclobemide 2×50 mg/kg/day + TET) of the same compound?
**A.** The value was “does not suppress the effect of TET”.

**Q.** What about the “Horizontal ambulatory activity (means ± esm)” value (from here on “Horizontal ambulatory activity”) [3, 5] of the same compound?
**A.** Its value is 474 ± 70 arbitrary unit.

**Q.** And the “Total ambulatory activity (means ± esm)” value [3, 5]?
**A.** Its value is 844 ± 88 arbitrary unit.

**Q.** And the “Horizontal ambulatory activity” value [3, 6]?
**A.** The value was 2319 ± 248 arbitrary unit.

**Q.** And the “Total ambulatory activity (means ± esm)” value [3, 6]?
**A.** The value was 3001 ± 314 arbitrary unit.

**Q.** And the “Vertical ambulatory activity (means ± esm)” value [3, 6]?
**A.** The value was 279 ± 37 arbitrary unit.

**Q.** And the Ambulatory activities ([3]; moclobemide 2×50 mg/kg/day for 5 days)?
**A.** Its Ambulatory activities is “does not lead to any significant effect on the ambulatory activities”.

**Q.** And the “Horizontal ambulatory activity” value [3, 7]?
**A.** The value was 1483 ± 163 arbitrary unit.

**Q.** And the “Total ambulatory activity (means ± esm)” value [3, 7]?
**A.** Its value is 2000 ± 224 arbitrary unit.

**Q.** What about the “Horizontal ambulatory activity” value [3, 8] of the same compound?
**A.** Its value is 2754 ± 415 arbitrary unit.

**Q.** And the “Total ambulatory activity (means ± esm)” value [3, 8]?
**A.** The value was 3840 ± 323 arbitrary unit.

**Q.** What about the “Effect of TET on the ambulatory activities” value [3, 9] of the same compound?
**A.** The value was “does not suppress the effect of TET”.

**Q.** And the “Horizontal ambulatory activity” value [3, 10]?
**A.** Its value is 497 ± 139 arbitrary unit.

**Q.** What about the “Horizontal ambulatory activity” value [3, 11] of the same compound?
**A.** The value was 2549 ± 221 arbitrary unit.

**Q.** What about the “Total ambulatory activity (means ± esm)” value [3, 11] of the same compound?
**A.** The value was 3332 ± 235 arbitrary unit.

**Q.** And the “Vertical ambulatory activity (means ± esm)” value [3, 11]?
**A.** Its value is 279 ± 27 arbitrary unit.

**Q.** And the Ambulatory activities ([3]; moclobemide 2×100 mg/kg/day, day 4)?
**A.** Its Ambulatory activities is “significantly decreases the ambulatory activities at day 4”.

**Q.** And the “Body weight (grammes ± esm)” value ([4]; moclobemide 2 × 50 mg/kg/day + TET 3 mg/kg/day, day 0)?
**A.** Its value is 245 ± 3 grammes.

**Q.** What about the “Body weight (grammes ± esm)” value ([4]; moclobemide 2 × 50 mg/kg/day + TET 3 mg/kg/day, day 1) of the same compound?
**A.** The value was 246 ± 3 grammes.

**Q.** What about the “Body weight (grammes ± esm)” value ([4]; moclobemide 2 × 50 mg/kg/day + TET 3 mg/kg/day, day 2) of the same compound?
**A.** The value was 249 ± 3 grammes.

**Q.** What about the “Body weight (grammes ± esm)” value ([4]; moclobemide 2 × 50 mg/kg/day + TET 3 mg/kg/day, day 3) of the same compound?
**A.** Its value is 253 ± 4 grammes.

**Q.** What about the “Body weight (grammes ± esm)” value ([4]; moclobemide 2 × 50 mg/kg/day + TET 3 mg/kg/day, day −3) of the same compound?
**A.** Its value is 216 ± 3 grammes.

**Q.** And the “Drop in weight between day 3 and day 4 induced by the TET” value [4, 9]?
**A.** Its value is “prevents the drop in weight induced by the TET”.

**Q.** And the “Body weight (grammes ± esm)” value ([4]; moclobemide 2 × 100 mg/kg/day + TET 3 mg/kg/day, day 0)?
**A.** Its value is 243 ± 4 grammes.

**Q.** What about the “Body weight (grammes ± esm)” value ([4]; moclobemide 2 × 100 mg/kg/day + TET 3 mg/kg/day, day 2) of the same compound?
**A.** Its value is 244 ± 4 grammes.

**Q.** And the “Body weight (grammes ± esm)” value ([4]; moclobemide 2 × 100 mg/kg/day + TET 3 mg/kg/day, day 3)?
**A.** Its value is 244 ± 4 grammes.

**Q.** What about the “Body weight (grammes ± esm)” value [4, 10] of the same compound?
**A.** The value was 241 ± 5 grammes.

**Q.** What about the “Body weight (grammes ± esm)” value ([4]; moclobemide 2 × 100 mg/kg/day + TET 3 mg/kg/day, day −3) of the same compound?
**A.** The value was 203 ± 5 grammes.
